Measurements from PMC8524858, “Dual inhibition of αvβ6 and αvβ1 reduces fibrogenesis in lung tissue explants from patients with IPF” (Respiratory Research, 2021).

How the values were obtained:
[1] = tested on: PCLSs prepared from explanted lung tissue from patients with IPF; experiment: Fibrotic gene expression in PCLSs from IPF lung explants; format: cell-based, human
Source text: (§1) PCLSs were generated from explanted lung tissue from patients with IPF and cultured as previously described. Mouse PCLSs were generated and cultured as previously described. Messenger ribonucleic acid (mRNA) levels in lysates prepared from snap-frozen tissue slices were quantified via NanoString PlexSet reagents and nCounter SPRINT Profiler (NanoString; Seattle, WA, USA; Additional file 1: Table S2) or TaqMan primers/probes on a Bio-Rad CFX96 thermocycler (Bio-Rad; Hercules, CA, USA; Additional file 1: Table S3).
Human PCLSs were generated from lung tissue explants from patients with IPF undergoing transplant surgery and cultured based on previously reported methods (E7-E12). Slices of tissue (400 µm) were cut using a Compresstome VF-300-0Z (Precisionary Instruments; Natick, MA, USA).
(§2) Slices from each individual core (human) or mouse were distributed among the treatment groups to control for variability in the fibrotic injury within the tissue. […] After 3 or 7 days in culture, slices were washed and snap-frozen. Viability of sentinel slices on Days 0/1 and 3/7 was determined using WST-1 Cell Proliferation Reagent (Sigma 5015944001; St Louis, MO, USA).
(§3) For all figures (except Fig. 2B, Fig. S2, and Fig. S4), snap-frozen tissue slices were incubated in one-third RLT buffer (Qiagen #79216; Venlo, Netherlands) supplemented with 2 mg/ml proteinase K (Sigma-Aldrich #3115887001; St Louis, MO, USA) at 55 °C for 2 h 45 min, with periodic vortexing to generate ribonucleic acid (RNA)-compatible tissue lysate. This lysate was incubated overnight with probes from a custom fibrosis gene panel and NanoString PlexSet reagents (Table S2). The following day, samples were analyzed on a NanoString nCounter SPRINT Profiler (NanoString; Seattle, WA, USA). Messenger RNA (mRNA) counts were normalized to housekeeping genes (GUSB, HPRT1, RPLP0, and/or POLR1B) and total mRNA counts, relative to vehicle-treated control from the same experiment, are reported.

[2] = tested on: PCLSs prepared from bleomycin-challenged mouse lungs; experiment: Col1a1 expression in PCLSs from bleomycin-challenged mouse lungs; format: cell-based; conditions: for IC50: Mus musculus, 72 h, 3 days of treatment, extrapolation from dose-response curve of combined experiments (Fig. S4), read-out: minimum concentration required to reduce Col1a1 mRNA levels by 50%; for effect on Col1a1 gene expression: chronic bleomycin-challenged mouse lungs, 7 days of treatment, nintedanib and pirfenidone at approximate clinical Cmax (Fig. 6C); for concentration for 50% reduction in collagen gene expression relative to concentration approximating Cmax: dose titrations in PCLSs from bleomycin-challenged mouse lungs; for inhibition of collagen mRNA expression: acutely injured mouse lungs, 3 days, PLN-74809 200 nM, GSK3008348 1000 nM, CWHM-12 1000 nM (Fig. 2B)
Source text: as §1
Mouse PCLSs were generated and cultured based on previously reported methods (E13). Briefly, mice were challenged with bleomycin (Hospira; Lake Forest, IL, USA or Teva; Toronto, ON, Canada), either acutely with a single dose (3 U/kg or 4 U/kg) or chronically with multiple doses (3 U/kg bleomycin followed by four 1 U/kg challenges at 2-week intervals). Fourteen days after the final bleomycin challenge, lungs were harvested and 200 μm-thick slices were cut using a Compresstome VF-300-0Z (Precisionary Instruments).
as §2, §3
For Figs. 2B, S2, and S4, RNA purification and qPCR were performed by Transcriptic, Inc. (Menlo Park, CA, USA) using a proprietary automated protocol. Briefly, RNA was purified on a KingFisher Flex system (Thermo Fisher) and qPCR was performed on a Bio-Rad CFX96 (Bio-Rad; Hercules, CA, USA) with TaqMan primers/probes (Thermo Fisher) listed in Table S3. Ct values were normalized to housekeeping genes (Rn18sRn45s and Hprt) and reported as ddCT and fold change versus the vehicle-treated samples.

[3] = parameters: method as in PMID 25504994; conditions: patients with IPF; read-out: approximate clinical maximum observed drug concentration (Cmax); cited from earlier work
human integrin αvβ1 = target: T1, human integrin αvβ1 (Homo sapiens, UniProt P05556+P06756); experiment: Integrin ligand-binding assay, αvβ1 (fibronectin ligand)
T1 construct: purchased ACROBiosystems or R&D Systems IT1-H52E1 or 6579-AVB
Description: (§4) Integrin ligand-binding assays were performed similar to that previously described.
(§5) Microplates were coated with recombinant human integrins dissolved in PBS (2 µg/ml, overnight at room temperature). Following removal of the coating solution, plates were washed with PBS. Plates were blocked with 200 µL/well of blocking buffer (2% bovine serum albumin [BSA] in PBS) at 37 °C for 1 h. […] Plates were incubated for 2 h at 25 °C, washed, and incubated for 1 h with biotin-labeled anti-fibronectin or anti-LAP antibodies (for αvβ1 or αvβ6/αvβ8, respectively).

human integrin αvβ6 = target: T2, human integrin αvβ6 (Homo sapiens, UniProt P06756+P18564); experiment: Integrin ligand-binding assay, αvβ6 (LAP ligand)
T2 construct: purchased ACROBiosystems or R&D Systems IT6-H52E1 or 3817-AV
Description: as §4, §5

human integrin αvβ3 = target: T3, human integrin αvβ3 (Homo sapiens, UniProt P05106+P06756); experiment: Integrin ligand-binding assay, αvβ3 (vitronectin ligand)
T3 construct: purchased R&D Systems 3050-AV
Description: as §4, §5

human integrin αvβ5 = target: T4, human integrin αvβ5 (Homo sapiens, UniProt P06756+P18084); experiment: Integrin ligand-binding assay, αvβ5 (vitronectin ligand)
T4 construct: purchased R&D Systems 2528-AV
Description: as §4, §5

human integrin αvβ8 = target: T5, human integrin αvβ8 (Homo sapiens, UniProt P06756+P26012); experiment: Integrin ligand-binding assay, αvβ8 (LAP ligand)
T5 construct: purchased R&D Systems 4135-AV
Description: as §4, §5

[4] = tested on: αvβ1-induced TGF-β activation; experiment: TGF-β co-culture assay, CHO-αv cells with MLEC luciferase reporter cells; format: cell-based, human; conditions: integrin αvβ1
Description: (§6) SW-β6 cells and MLECs or CHO-αv cells and MLECs were cultured in 96-well plates with test compounds or antibodies for 20 h at 37 °C in a 5% CO2 incubator. […] Measurement of MLEC luciferase production resulting from αvβ6- or αvβ1-mediated TGF-β activation was performed using the Bright-Glo Luciferase Assay System (Promega; Madison, WI, USA) according to manufacturer’s instruction. Luminescence was quantified by a Tecan Spark 10M plate reader. IC50 curves were generated using Dotmatics software suite with five-parameter logistic curve fitting. Geometric mean IC50 was calculated for each compound from multiple independent analyses.

[5] = target: T6, αvβ6-induced TGF-β activation (Homo sapiens, UniProt P06756+P18564); experiment: TGF-β co-culture assay, SW-β6 cells with MLEC luciferase reporter cells; format: cell-based; conditions: integrin αvβ6
T6 construct: expressed in transfected cells; host or cells: SW480 cells stably transfected with β6 (SW-β6), co-cultured with MLEC reporter cells
Description: as §6

[6] = 7 days, PLN-74809 200 nM, nintedanib 75 nM, pirfenidone 50 µM, vs DMSO (Fig. 6A)

T1 sequence (P06756 31-992 limits assumed): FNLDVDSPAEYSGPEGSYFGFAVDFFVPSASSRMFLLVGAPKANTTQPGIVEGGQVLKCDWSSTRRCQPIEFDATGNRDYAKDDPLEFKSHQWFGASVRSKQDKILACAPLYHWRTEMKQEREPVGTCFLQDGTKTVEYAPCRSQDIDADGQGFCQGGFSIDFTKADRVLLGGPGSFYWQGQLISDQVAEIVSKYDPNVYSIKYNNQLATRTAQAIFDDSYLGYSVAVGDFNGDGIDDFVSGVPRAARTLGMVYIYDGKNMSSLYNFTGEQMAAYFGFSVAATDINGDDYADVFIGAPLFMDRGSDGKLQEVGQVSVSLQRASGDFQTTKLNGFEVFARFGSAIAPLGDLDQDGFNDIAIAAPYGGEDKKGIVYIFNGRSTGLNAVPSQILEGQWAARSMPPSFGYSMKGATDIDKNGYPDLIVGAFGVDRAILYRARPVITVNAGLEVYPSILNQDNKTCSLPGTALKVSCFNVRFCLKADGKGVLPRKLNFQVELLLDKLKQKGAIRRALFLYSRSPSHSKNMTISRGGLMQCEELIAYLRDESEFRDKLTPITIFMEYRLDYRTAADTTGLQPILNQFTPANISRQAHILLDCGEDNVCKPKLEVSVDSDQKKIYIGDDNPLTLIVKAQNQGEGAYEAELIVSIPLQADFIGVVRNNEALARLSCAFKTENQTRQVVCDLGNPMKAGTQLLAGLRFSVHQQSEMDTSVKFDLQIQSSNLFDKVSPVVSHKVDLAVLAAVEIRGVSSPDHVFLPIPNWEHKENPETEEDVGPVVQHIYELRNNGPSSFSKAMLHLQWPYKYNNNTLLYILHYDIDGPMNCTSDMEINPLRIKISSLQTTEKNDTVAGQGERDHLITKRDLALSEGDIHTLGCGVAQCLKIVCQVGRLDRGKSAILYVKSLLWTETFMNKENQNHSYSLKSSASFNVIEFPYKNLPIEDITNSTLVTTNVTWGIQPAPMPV
T1 sequence (P05556 21-728 limits assumed): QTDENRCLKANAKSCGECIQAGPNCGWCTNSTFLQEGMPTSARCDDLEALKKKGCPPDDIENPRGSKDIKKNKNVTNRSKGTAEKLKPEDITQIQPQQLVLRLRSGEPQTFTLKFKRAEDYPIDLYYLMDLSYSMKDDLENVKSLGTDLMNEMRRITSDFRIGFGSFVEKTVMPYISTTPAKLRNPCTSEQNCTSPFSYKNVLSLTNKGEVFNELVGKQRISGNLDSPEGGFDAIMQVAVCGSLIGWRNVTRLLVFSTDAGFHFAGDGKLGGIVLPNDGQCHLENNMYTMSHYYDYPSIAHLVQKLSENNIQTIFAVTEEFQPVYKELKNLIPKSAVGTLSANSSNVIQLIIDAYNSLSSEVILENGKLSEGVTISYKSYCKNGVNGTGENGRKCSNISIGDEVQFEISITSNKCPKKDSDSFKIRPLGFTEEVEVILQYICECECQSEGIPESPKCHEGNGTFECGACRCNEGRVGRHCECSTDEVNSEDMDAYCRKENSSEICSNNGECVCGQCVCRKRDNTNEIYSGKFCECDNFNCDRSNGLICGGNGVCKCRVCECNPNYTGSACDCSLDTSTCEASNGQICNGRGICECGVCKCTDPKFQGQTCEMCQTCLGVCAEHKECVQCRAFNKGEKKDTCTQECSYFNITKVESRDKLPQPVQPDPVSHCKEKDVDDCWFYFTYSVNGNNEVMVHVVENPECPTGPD
T5 sequence (P06756 31-992 limits assumed): as the sequence (P06756 31-992 limits assumed) above
T5 sequence (P26012 43-684 limits assumed): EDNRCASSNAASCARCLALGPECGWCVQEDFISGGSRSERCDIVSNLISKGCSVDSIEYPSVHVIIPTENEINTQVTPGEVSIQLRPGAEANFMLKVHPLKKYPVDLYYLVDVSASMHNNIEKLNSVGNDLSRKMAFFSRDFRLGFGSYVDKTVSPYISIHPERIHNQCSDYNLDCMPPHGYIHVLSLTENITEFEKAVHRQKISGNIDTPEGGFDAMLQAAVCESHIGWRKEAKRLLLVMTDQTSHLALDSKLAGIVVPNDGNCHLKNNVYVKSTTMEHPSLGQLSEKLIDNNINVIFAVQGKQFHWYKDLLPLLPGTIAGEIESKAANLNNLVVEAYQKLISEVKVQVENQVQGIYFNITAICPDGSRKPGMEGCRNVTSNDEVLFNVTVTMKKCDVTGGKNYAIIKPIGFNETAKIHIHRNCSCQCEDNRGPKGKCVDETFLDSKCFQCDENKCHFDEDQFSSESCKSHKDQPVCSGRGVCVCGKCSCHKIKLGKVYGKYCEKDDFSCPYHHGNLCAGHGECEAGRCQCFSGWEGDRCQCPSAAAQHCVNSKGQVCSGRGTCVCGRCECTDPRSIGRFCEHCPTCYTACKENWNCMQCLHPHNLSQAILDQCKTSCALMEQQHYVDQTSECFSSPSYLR
T3 sequence (P06756 31-992 limits assumed): as the sequence (P06756 31-992 limits assumed) above
T3 sequence (P05106 27-718 limits assumed): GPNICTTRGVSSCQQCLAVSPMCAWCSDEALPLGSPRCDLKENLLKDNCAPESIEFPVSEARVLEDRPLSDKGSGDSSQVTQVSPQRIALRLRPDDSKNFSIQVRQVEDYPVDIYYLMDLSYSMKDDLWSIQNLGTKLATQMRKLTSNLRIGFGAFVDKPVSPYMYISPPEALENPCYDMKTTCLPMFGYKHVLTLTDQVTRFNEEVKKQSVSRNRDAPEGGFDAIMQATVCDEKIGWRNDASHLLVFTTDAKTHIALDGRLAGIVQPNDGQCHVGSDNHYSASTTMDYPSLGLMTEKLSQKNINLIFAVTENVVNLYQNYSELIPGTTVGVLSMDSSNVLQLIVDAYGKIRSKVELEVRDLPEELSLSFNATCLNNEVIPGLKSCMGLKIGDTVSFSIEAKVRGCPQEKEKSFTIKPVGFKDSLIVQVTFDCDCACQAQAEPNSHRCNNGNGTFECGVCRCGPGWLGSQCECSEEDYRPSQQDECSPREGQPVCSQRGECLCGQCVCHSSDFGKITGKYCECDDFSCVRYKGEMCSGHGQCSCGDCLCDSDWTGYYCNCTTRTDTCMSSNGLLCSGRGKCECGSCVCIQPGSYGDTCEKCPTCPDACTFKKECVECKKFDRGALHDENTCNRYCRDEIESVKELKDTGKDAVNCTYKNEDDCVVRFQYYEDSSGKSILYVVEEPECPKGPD
T4 sequence (P06756 31-992 limits assumed): as the sequence (P06756 31-992 limits assumed) above
T4 sequence (P18084 24-719 limits assumed): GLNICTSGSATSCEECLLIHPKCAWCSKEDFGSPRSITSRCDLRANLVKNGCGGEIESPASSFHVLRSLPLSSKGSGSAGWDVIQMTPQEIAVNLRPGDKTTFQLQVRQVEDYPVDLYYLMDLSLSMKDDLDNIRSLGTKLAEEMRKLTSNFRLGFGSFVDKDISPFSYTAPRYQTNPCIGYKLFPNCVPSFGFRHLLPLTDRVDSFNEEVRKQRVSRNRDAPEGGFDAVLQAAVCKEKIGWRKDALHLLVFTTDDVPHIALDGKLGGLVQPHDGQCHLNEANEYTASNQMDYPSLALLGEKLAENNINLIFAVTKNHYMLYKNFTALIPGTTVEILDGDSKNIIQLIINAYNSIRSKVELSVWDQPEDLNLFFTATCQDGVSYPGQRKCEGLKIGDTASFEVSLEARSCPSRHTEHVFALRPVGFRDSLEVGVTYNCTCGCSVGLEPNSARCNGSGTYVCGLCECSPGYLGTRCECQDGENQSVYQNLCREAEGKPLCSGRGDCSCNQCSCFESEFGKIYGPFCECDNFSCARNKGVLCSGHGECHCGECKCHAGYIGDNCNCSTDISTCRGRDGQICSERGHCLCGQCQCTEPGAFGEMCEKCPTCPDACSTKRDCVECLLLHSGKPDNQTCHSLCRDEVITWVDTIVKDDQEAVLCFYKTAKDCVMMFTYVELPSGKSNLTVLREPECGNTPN
T2 sequence (P06756 31-992 limits assumed): as the sequence (P06756 31-992 limits assumed) above
T2 sequence (P18564 22-707 limits assumed): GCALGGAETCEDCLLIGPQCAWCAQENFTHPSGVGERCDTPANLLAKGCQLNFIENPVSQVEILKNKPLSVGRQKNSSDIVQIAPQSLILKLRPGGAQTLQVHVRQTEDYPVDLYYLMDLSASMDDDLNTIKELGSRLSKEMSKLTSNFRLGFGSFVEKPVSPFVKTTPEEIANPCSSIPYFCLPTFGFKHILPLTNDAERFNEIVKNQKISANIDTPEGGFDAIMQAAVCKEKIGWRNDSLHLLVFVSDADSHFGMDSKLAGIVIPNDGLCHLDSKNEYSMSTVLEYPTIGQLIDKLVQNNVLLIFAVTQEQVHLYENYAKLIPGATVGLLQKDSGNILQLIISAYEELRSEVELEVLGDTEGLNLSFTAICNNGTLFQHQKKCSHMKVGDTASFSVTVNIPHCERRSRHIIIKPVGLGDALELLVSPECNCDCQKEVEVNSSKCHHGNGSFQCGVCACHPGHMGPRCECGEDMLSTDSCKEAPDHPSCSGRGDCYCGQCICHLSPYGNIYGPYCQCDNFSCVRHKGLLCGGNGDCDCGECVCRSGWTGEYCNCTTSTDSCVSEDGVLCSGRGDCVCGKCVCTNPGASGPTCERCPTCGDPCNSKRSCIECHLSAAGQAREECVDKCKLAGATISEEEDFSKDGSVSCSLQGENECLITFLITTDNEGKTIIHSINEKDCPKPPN

Compound | reduction of COL1A1 mRNA expression [1, 6] | IC50 [2] [nM] | effect on Col1a1 gene expression [2] | concentration for 50% reduction in collagen gene expression relative to concentration approximating Cmax [2] [×] | Cmax [3] [µM] | IC50 [4] [nM] | inhibition of collagen mRNA expression [2] | also measured
COC(=O)c1ccc2c(c1)NC(=O)/C2=C(\Nc1ccc(N(C)C(=O)CN2CCN(C)CC2)cc1)c1ccccc1 [nintedanib] | no effect | 897 | did not significantly alter | > 10 | ~0.075 | – | – | –
Cc1cccc(-c2[nH]ncc2-c2ccc(F)c(-c3cnn(CCO)c3)c2)n1 [Compound R-268712, reference compound] | – | – | – | – | – | – | – | reduction of COL1A1 mRNA expression ([1]; 7-day incubation, Compound A 471 nM, 3G9 0.5 µg/ml, PLN-74809 1.82 µM, ALK5i R-268712 1 µM, vs vehicle (Fig. 1A)): ~ 80%
CC(C)(C)c1cc(Br)cc([C@H](CC(=O)O)NC(=O)CNC(=O)c2cc(O)cc(NC3=NCC(O)CN3)c2)c1 (stereo partly shown) [CWHM-12, reference compound] | – | – | – | – | – | 2 | no additional reduction | IC50 (human integrin αvβ1): 1.3 nM; Fold selectivity (vs αvβ1) (human integrin αvβ1; ligand binding): 1×; IC50 (human integrin αvβ6): 6.1 nM; Fold selectivity (vs αvβ1) (human integrin αvβ6; ligand binding): 4.7×; IC50 (human integrin αvβ3): 0.7 nM; Fold selectivity (vs αvβ1) (human integrin αvβ3; ligand binding): 0.5×; IC50 (human integrin αvβ5): 5.3 nM; Fold selectivity (vs αvβ1) (human integrin αvβ5; ligand binding): 4.1×; IC50 (human integrin αvβ8): 7.3 nM; Fold selectivity (vs αvβ1) (human integrin αvβ8; ligand binding): 5.6×; Fold selectivity (vs αvβ1) ([4]; TGF-β activation): 1×; Fold selectivity (vs αvβ1) ([5]; TGF-β activation): 159×; IC50 [5]: 318 nM
Cc1cc(C)n(-c2cccc([C@H](CC(=O)O)CN3CC[C@@H](CCc4ccc5c(n4)NCCC5)C3)c2)n1 [GSK3008348, (S)-3-(3-(3,5-Dimethyl-1 H-pyrazol-1-yl)phenyl)-4-((R)-3-(2-(5,6,7,8-tetrahydro-1,8-naphthyridin-2-yl)ethyl)pyrrolidin-1-yl)butanoic acid] | – | – | – | – | – | 17.4 | no additional reduction | –
Cc1ccc(=O)n(-c2ccccc2)c1 [pirfenidone] | no effect | 678000 | did not significantly alter | > 10 | ~50 | – | – | –
